Assay results taken from PMC12638379, “An innovative approach to development of new pyrazolylquinolin-2-one hybrids as dual EGFR and BRAF^V600E inhibitors” (Molecular Diversity, 2025).
Where two headings read alike, the source gives them in different places.

Test system: NCI 60 cancer cell lines
Assay: NCI anticancer screening over a panel of 60 cancer cells, single concentration 10 µM
Type: cell-based, human
Details: Homo sapiens, read-out: % Growth Inhibition (GI %)
Procedure: Ten final compounds 4a–j and five intermediates 2a–e have been selected by the National Cancer Institute (NCI) for anticancer screening over a panel of 60 cancer cells that cover a variety of histological tissues, including the central nervous system, leukemia, lung, colon, kidney, ovary, breast, and prostate, using the protocol established by the National Cancer Institute (NCI). In a primary screening, each compound was screened at a concentration of 10 µM.
Compounds 2a-e and 4a-j were selected by the National Cancer Institute (NCI) according to the protocol of the Compound Evaluation Branch of the National Cancer Institute, Bethesda, USA, for in vitro anticancer screening which refers in turn to apoptotic activity. The methodology of the NCI anticancer screening has been described in detail elsewhere (http://www.dtp.nci.nih.gov).

COc1ccc2[nH]c(=O)cc(-n3ncc(/C(C)=N/Nc4ccc(S(N)(=O)=O)cc4)c3C)c2c1 [Compound 4c, (E)-4-(2-(1-(1-(6-methoxy-2-oxo-1,2-dihydroquinolin-4-yl)-5-methyl-1H-pyrazol-4-yl)ethylidene)hydrazineyl)benzenesulfonamide]
inhibition at 10 µM (786-0, Renal cancer 786-0, 10 μM): < 5%
inhibition at 10 µM (A498, Renal cancer A498, 10 μM): 7.1%
inhibition at 10 µM (A549, Non-small cell lung cancer A549/ATCC, 10 μM): < 5%
inhibition at 10 µM (ACHN, Renal cancer ACHN, 10 μM): < 5%
inhibition at 10 µM (BT-549, Breast cancer BT-549, 10 μM): < 5%
inhibition at 10 µM (CAKI-1, Renal cancer CAKI-1, 10 μM): < 5%
inhibition at 10 µM (CCRF-CEM, Leukemia CCRF-CEM, 10 μM): < 5%
inhibition at 10 µM (COLO 205, Colon cancer COLO 205, 10 μM): < 5%
inhibition at 10 µM (DU-145, Prostate cancer DU-145, 10 μM): < 5%
inhibition at 10 µM (HCC 2998, Colon cancer HCC-2998, 10 μM): < 5%
inhibition at 10 µM (HCT-116, Colon cancer HCT-116, 10 μM): < 5%
inhibition at 10 µM (HL-60, Leukemia HL-60(TB), 10 μM): < 5%
inhibition at 10 µM (HOP-92, Non-small cell lung cancer HOP-92, 10 μM): < 5%
inhibition at 10 µM (HT-29, Colon cancer HT29, 10 μM): < 5%
inhibition at 10 µM (IGROV-1, Ovarian cancer IGROV1, 10 μM): < 5%
inhibition at 10 µM (K562, Leukemia K-562, 10 μM): < 5%
inhibition at 10 µM (KM12, Colon cancer KM12, 10 μM): < 5%
inhibition at 10 µM (Leukemia SR, 10 μM): 13%
inhibition at 10 µM (MCF7, Breast cancer MCF7, 10 μM): 6.69%
inhibition at 10 µM (MDA-MB-231, Breast cancer MDA-MB-231/ATCC, 10 μM): 8.98%
inhibition at 10 µM (MDA-MB-435, Melanoma MDA-MB-435, 10 μM): < 5%
inhibition at 10 µM (MDA-MB-468, Breast cancer MDA-MB-468, 10 μM): 7.22%
inhibition at 10 µM (MOLT-4, Leukemia MOLT-4, 10 μM): < 5%
inhibition at 10 µM (Melanoma M14, 10 μM): < 5%
inhibition at 10 µM (Melanoma MALM-3M, 10 μM): 10.6%
inhibition at 10 µM (NCI-H23, Non-small cell lung cancer NCI-H23, 10 μM): 6%
inhibition at 10 µM (NCI-H226, Non-small cell lung cancer NCI-H226, 10 μM): 8.4%
inhibition at 10 µM (NCI-H460, Non-small cell lung cancer NCI-H460, 10 μM): < 5%
inhibition at 10 µM (NCI-H522, Non-small cell lung cancer NCI-H522, 10 μM): 11.8%
inhibition at 10 µM (OVCAR-3, Ovarian cancer OVCAR-3, 10 μM): < 5%
inhibition at 10 µM (OVCAR-4, Ovarian cancer OVCAR-4, 10 μM): < 5%
inhibition at 10 µM (OVCAR-5, Ovarian cancer OVCAR-5, 10 μM): < 5%
inhibition at 10 µM (OVCAR-8, Ovarian cancer OVCAR-8, 10 μM): < 5%
inhibition at 10 µM (Prostate cancer PC-3, 10 μM): < 5%
inhibition at 10 µM (RPMI-8226, Leukemia RPMI-8226, 10 μM): < 5%
inhibition at 10 µM (RXF 393, Renal cancer RXF 393, 10 μM): 6.12%
inhibition at 10 µM (SF-268, CNS Cancer SF-268, 10 μM): < 5%
inhibition at 10 µM (SF-295, CNS Cancer SF-295, 10 μM): 10.5%
inhibition at 10 µM (SF-539, CNS Cancer SF-539, 10 μM): 5.07%
inhibition at 10 µM (SK-MEL-2, Melanoma SK-MEL-2, 10 μM): < 5%
inhibition at 10 µM (SK-MEL-5, Melanoma SK-MEL-5, 10 μM): < 5%
inhibition at 10 µM (SK-MEL-28, Melanoma SK-MEL-28, 10 μM): < 5%
inhibition at 10 µM (SK-OV-3, Ovarian cancer SK-OV-3, 10 μM): < 5%
inhibition at 10 µM (SN12C, Renal cancer SN12C, 10 μM): 8.13%
inhibition at 10 µM (SNB-19, CNS Cancer SNB-19, 10 μM): 5.89%
inhibition at 10 µM (SNB-75, CNS Cancer SNB-75, 10 μM): < 5%
inhibition at 10 µM (SW-620, Colon cancer SW-620, 10 μM): < 5%
inhibition at 10 µM (T47D, Breast cancer T-47D, 10 μM): 12.1%
inhibition at 10 µM (TK-10, Renal cancer TK-10, 10 μM): < 5%
inhibition at 10 µM (U-251, CNS Cancer U251, 10 μM): < 5%
inhibition at 10 µM (UACC-62, Melanoma UACC-62, 10 μM): 5.15%
inhibition at 10 µM (UACC-257, Melanoma UACC-257, 10 μM): < 5%
inhibition at 10 µM (UO-31, Renal cancer UO-31, 10 μM): 12.9%
